Patent publication US8815882B2, “Pyrazole aminopyrimidine derivatives as LRRK2 modulators” (Genentech, Inc., priority 2010, dated 2014)

Biological target: T1, LRRK2 (Homo sapiens, UniProt Q5S007, G2019S)
T1 construct: purchased Invitrogen PV4882 (lot 567054A)
Test: In Vitro LRRK2 Assay (LabChip 3000, fluorescently-labeled peptide substrate, ATP)
Type: biochemical
Details: Table 10; LRRK2 Ki (micromolar); read-out: LRRK2 Ki (KI)
Method in brief: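 LRRK2, fluorescent peptide substrate (diluted to 4 μM before mixing), ATP and compound were incubated 2 h in the dark, then stopped. Phosphorylated and unphosphorylated peptide were separated by capillary electrophoresis and quantified by fluorescence. Ki was fitted with a tight-binding equation including enzyme concentration, S and Km; IC50 or percent inhibition were also reported.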

T1 sequence (Q5S007 whole entry G2019S): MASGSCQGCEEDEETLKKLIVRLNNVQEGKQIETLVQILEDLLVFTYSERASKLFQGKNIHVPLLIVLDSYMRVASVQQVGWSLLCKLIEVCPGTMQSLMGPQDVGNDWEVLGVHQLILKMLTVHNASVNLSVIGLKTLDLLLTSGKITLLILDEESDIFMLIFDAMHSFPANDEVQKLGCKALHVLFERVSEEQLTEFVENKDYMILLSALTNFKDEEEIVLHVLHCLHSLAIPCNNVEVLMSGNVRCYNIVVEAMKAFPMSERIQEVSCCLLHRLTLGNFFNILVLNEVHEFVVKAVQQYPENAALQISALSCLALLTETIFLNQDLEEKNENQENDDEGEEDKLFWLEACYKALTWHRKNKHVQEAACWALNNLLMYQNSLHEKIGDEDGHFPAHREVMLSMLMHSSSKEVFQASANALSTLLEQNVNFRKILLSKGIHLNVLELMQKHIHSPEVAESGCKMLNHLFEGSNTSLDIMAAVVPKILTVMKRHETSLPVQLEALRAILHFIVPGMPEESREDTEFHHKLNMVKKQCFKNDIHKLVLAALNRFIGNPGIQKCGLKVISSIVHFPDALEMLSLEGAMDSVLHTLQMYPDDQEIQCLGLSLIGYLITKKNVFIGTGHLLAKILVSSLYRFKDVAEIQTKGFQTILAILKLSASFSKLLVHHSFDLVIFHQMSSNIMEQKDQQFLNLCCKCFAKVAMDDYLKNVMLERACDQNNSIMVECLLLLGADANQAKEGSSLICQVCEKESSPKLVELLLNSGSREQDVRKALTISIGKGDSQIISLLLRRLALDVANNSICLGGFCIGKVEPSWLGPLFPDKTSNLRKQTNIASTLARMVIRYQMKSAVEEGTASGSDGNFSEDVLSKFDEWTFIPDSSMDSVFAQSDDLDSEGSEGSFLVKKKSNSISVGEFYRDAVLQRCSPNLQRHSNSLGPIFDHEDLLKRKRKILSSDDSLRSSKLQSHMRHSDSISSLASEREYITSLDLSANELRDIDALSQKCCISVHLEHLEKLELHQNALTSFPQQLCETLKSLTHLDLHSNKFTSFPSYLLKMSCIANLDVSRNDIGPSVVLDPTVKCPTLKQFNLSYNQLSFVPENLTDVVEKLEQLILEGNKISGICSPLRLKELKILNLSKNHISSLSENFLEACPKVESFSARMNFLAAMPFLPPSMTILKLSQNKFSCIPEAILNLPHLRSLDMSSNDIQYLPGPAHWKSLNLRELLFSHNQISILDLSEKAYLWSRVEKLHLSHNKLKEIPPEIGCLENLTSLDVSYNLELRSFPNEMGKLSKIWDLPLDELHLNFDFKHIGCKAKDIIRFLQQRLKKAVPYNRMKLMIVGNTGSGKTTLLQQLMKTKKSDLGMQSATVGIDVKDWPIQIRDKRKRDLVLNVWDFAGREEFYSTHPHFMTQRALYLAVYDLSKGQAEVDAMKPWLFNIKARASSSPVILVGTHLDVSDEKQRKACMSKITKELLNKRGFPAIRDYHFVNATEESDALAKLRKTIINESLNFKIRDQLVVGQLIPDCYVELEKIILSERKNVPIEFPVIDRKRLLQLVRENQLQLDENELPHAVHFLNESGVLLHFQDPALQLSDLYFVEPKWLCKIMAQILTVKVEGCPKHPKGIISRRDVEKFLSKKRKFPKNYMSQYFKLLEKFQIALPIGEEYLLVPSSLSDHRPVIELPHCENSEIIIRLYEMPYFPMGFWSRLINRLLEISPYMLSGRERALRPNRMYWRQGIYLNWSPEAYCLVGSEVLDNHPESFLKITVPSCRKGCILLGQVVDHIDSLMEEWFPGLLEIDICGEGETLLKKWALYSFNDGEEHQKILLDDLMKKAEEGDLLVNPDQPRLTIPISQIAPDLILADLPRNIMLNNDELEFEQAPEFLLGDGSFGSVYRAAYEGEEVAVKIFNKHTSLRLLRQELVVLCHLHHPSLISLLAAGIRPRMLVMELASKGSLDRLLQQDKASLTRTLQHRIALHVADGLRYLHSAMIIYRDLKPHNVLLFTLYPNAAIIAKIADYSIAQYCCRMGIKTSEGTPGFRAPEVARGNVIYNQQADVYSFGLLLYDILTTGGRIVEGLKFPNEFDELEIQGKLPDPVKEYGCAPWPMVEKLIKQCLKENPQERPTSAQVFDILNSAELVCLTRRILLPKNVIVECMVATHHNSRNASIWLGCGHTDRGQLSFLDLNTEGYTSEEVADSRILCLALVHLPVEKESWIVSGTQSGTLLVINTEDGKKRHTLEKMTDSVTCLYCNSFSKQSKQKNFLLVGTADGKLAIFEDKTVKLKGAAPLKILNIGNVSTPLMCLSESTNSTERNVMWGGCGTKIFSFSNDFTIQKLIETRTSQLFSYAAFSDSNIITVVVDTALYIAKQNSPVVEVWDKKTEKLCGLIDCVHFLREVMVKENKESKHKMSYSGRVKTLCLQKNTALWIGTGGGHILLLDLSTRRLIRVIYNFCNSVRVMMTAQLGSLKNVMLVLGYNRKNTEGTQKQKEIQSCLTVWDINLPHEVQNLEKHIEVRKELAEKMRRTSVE

| Structure (SMILES) | Ki [nM] |
| --- | --- |
| CNc1nc(Nc2cn(C(C)(C)C(=O)NCC3CC3)nc2C)ncc1C(F)(F)F [Example 427, N-(cyclopropylmethyl)-2-methyl-2-(3-methyl-4-(4-(methylamino)-5-(trifluoromethyl)pyrimidin-2-ylamino)-1H-pyrazol-1-yl)propanamide] | 52 |
| CCNC(=O)C1(n2cc(Nc3ncc(C(F)(F)F)c(NC)n3)c(C)n2)CCC1 [Example 428] | 24 |
| CNC(=O)C(C)(C)n1cc(Nc2ncc(C(F)(F)F)c(NC)n2)c(C)n1 [Example 432, N,2-dimethyl-2-(3-methyl-4-(4-(methylamino)-5-(trifluoromethyl)pyrimidin-2-ylamino)-1H-pyrazol-1-yl)propanamide] | 18.4 |
| COC(=O)C(C)(C)n1ncc(Nc2ncc(Cl)c(OC)n2)c1C [Example 434, 2-[4-(5-Chloro-4-methoxy-pyrimidin-2-ylamino)-5-methyl-pyrazol-1-yl]-2-methyl-propionic acid methyl ester] | 12.2 |
| COC(=O)C(C)(C)n1cc(Nc2ncc(Cl)c(OC)n2)c(C)n1 [Example 435, 2-[4-(5-Chloro-4-methoxy-pyrimidin-2-ylamino)-3-methyl-pyrazol-1-yl]-2-methyl-propionic acid methyl ester] | 35.5 |
| CNc1nc(Nc2cn([C@@H](C)C(=O)N(C)C)nc2C)ncc1C(F)(F)F [Example 436, (S)-N,N-Dimethyl-2-[3-methyl-4-(4-methylamino-5-trifluoromethyl-pyrimidin-2-ylamino)-pyrazol-1-yl]-propionamide] | 30.3 |
| CCNC(=O)C(C)(C)n1cc(Nc2ncc(C(F)(F)F)c(NC)n2)c(C)n1 [Example 440, N-Ethyl-2-[3-methyl-4-(4-methylamino-5-trifluoromethyl-pyrimidin-2-ylamino)-pyrazol-1-yl]-isobutyramide] | 9.5 |
| CCNC(=O)C1(n2ncc(Nc3ncc(C(F)(F)F)c(NC)n3)c2C)CCC1 [Example 442, 1-[5-Methyl-4-(4-methylamino-5-trifluoromethyl-pyrimidin-2-ylamino)-pyrazol-1-yl]-cyclobutane-carboxylic acid ethylamide] | 15.6 |
| CNc1nc(Nc2cnn(C(C)(C)C(=O)NCC(F)(F)F)c2C)ncc1C(F)(F)F [Example 443, 2-[5-Methyl-4-(4-methylamino-5-trifluoromethyl-pyrimidin-2-ylamino)-pyrazol-1-yl]-N-(2,2,2-trifluoro-ethyl)-isobutyramide] | 66.6 |
| CNc1nc(Nc2cnn(C(C)(C)C(=O)NC(C)(C)C)c2C)ncc1C(F)(F)F [Example 447, N-tert-Butyl-2-[5-methyl-4-(4-methylamino-5-trifluoromethyl-pyrimidin-2-ylamino)-pyrazol-1-yl]-isobutyramide] | 67 |
| CCNc1nc(Nc2cnn(C(C)(C)C(=O)NC)c2C)ncc1C(F)(F)F [Example 448, 2-[4-(4-Ethylamino-5-trifluoromethyl-pyrimidin-2-ylamino)-5-methyl-pyrazol-1-yl]-N-methyl-isobutyramide] | 15.3 |
| CCNc1nc(Nc2cn(C(C)(C)C(=O)NC)nc2C)ncc1C(F)(F)F [Example 453, 2-[4-(4-Ethylamino-5-trifluoromethyl-pyrimidin-2-ylamino)-3-methyl-pyrazol-1-yl]-N-methyl-isobutyramide] | 9.2 |

Molecules with a lower Ki, results first:

| Ki [nM] | Structure (SMILES) |
| --- | --- |
| 6.5 | CNc1nc(Nc2cn([C@H](C)C#N)nc2C)ncc1C(F)(F)F [Example 437] |
| 5.8 | COc1nc(Nc2cn(C(C)(C)C#N)nc2C2CC2)ncc1Cl [Example 438, 2-[4-(5-Chloro-4-methoxy-pyrimidin-2-ylamino)-3-cyclopropyl-pyrazol-1-yl]-2-methyl-propionitrile] |
| 1.6 | CNc1nc(Nc2cnn([C@H](C)C#N)c2C)ncc1C(F)(F)F [Example 439, (R)-2-[5-Methyl-4-(4-methylamino-5-trifluoromethyl-pyrimidin-2-ylamino)-pyrazol-1-yl]-propionitrile] |
| 2.4 | CNc1nc(Nc2cnn(C3(C#N)CCC3)c2C)ncc1C(F)(F)F [Example 446, 1-[5-Methyl-4-(4-methylamino-5-trifluoromethyl-pyrimidin-2-ylamino)-pyrazol-1-yl]-cyclobutane-carbonitrile] |
| 1.3 | CNC(=O)C(C)(C)n1cc(Nc2ncc(C(F)(F)F)c(NC3CC3)n2)c(C)n1 [Example 449, 2-[4-(4-Cyclopropylamino-5-trifluoromethyl-pyrimidin-2-ylamino)-3-methyl-pyrazol-1-yl]-N-methyl-isobutyramide] |
| 7.1 | CNC(=O)C(C)(C)n1ncc(Nc2ncc(C(F)(F)F)c(NC3CC3)n2)c1C [Example 450, 2-[4-(4-Cyclopropylamino-5-trifluoromethyl-pyrimidin-2-ylamino)-5-methyl-pyrazol-1-yl]-N-methyl-isobutyramide] |
| 0.3 | CCNc1nc(Nc2cn(C(C)(C)C#N)nc2C)ncc1C(F)(F)F [Example 451, 2-[4-(4-Ethylamino-5-trifluoromethyl-pyrimidin-2-ylamino)-3-methyl-pyrazol-1-yl]-2-methyl-propionitrile] |
